Each block holds one molecule with its values, some of them ahead of it.
How the values were obtained:
[1] = test system: AsPC-1 (homozygous mutant KRAS G12D human pancreatic cell line); experiment: KRAS 3D-Cell Proliferation Assay, AsPC-1 (Example 503); format: cell-based; settings: Homo sapiens, ASPC1, 168 h, AsPC-1 3D culture, 7 days, CellTiter-Glo 3D; read-out: Prolif AsPC-1 3D ATP IC50
Method in brief: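 IC50 values derive from 4-parameter Hill fits of normalized luminescence, where DMSO sets 0% and 1 μM staurosporine 100% inhibition. 3D cultures in RPMI-1640 with 10% fetal bovine serum were exposed to compound for 7 days before CellTiter-Glo 3D lysis.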

[2] = test system: PC-9 (KRAS wild type human lung adenocarcinoma cell line); experiment: KRAS 3D-Cell Proliferation Assay, PC-9 (Example 503); format: cell-based; settings: 168 h, PC-9 3D culture, 7 days, CellTiter-Glo 3D, read-out: Prolif PC9 3D ATP IC50
Procedure: Example 503: KRAS 3D-Cell Proliferation Assays. Cellular potencies of compounds are assessed by evaluating inhibition of proliferation in 3D cultures of homozygous mutant KRAS G12D human pancreatic cell lines (AsPC-1 and HPAC) as compared to a KRAS wild type human lung adenocarcinoma cell line (PC-9 and/or H1975). Cells are seeded into 384-well black round-bottom, ultra-low attachment assay plates in 50 uL cell growth medium (RPMI-1640 with 10% fetal bovine serum and 2 mM L-glutamine). After overnight incubation at 37° C. and 5% CO2, compounds solubilized in DMSO are added as dilution series to the wells in a total volume of 150 nL (0.3% DMSO final). The cells are incubated for 7 days at 37° C. and 5% CO2. Cell proliferation is quantitated by addition of 40 uL/well of CellTiter-GloÒ 3D (Promega), and the well contents are mixed 20× at high speed using liquid handling automation workstation (Bravo with 384-well head) and centrifuged at 1500 rpm for 2 minutes to eliminate bubbles. This reagent in combination with mechanical disruption releases the cellular ATP to promote activity in a luciferase-based enzyme/substrate chemiluminescent detection system. After a 30-minute incubation under ambient conditions with shaking and an additional 10 minutes without shaking, the luminescence is read on a plate reader (e.g., EnVision [PerkinElmer]). The results are normalized to percent inhibition based on the following control samples: DMSO (0% inhibition) and 1 μM staurosporine (100% inhibition). The normalized luminescence results are plotted against compound concentration, and the data are fit to a 4-parameter Hill equation to determine the IC50 values.

Structure (SMILES): C[C@@H]1Oc2nc(-c3cc(N)c(F)c(F)c3C(F)(F)F)c(F)c3nc(OC[C@@]45CCCN4C[C@H](F)C5)nc(c23)N2C[C@H]3CC[C@H](N3)[C@@H]12 [Compound 15, 2,3-difluoro-5-((5S,5aS,6S,9R)-1-fluoro-12-(((2R,7aS)-2-fluorotetrahydro-1H-pyrrolizin-7a(5H)-yl)methoxy)-5-methyl-5a,6,7,8,9,10-hexahydro-5H-4-oxa-3,10a,11,13,14-pentaaza-6,9-methanonaphtho[1,8-ab]heptalen-2-yl)-4-(trifluoromethyl)aniline]
IC50 [1]: 1.57 nM
IC50 [2]: 2.9 µM

Structure (SMILES): C[C@@H]1Oc2nc(-c3cc(N)c(F)cc3C(F)(F)F)c(F)c3nc(OC[C@]45CCN4CC(F)(F)C5)nc(c23)N2C[C@H]3CC[C@H](N3)[C@@H]12 [Compound 71, 5-((5S,5aS,6S,9R)-12-(((R)-3,3-Difluoro-1-azabicyclo[3.2.0]heptan-5-yl)methoxy)-1-fluoro-5-methyl-5a,6,7,8,9,10-hexahydro-5H-4-oxa-3,10a,11,13,14-pentaaza-6,9-methanonaphtho[1,8-ab]heptalen-2-yl)-2-fluoro-4-(trifluoromethyl)aniline]
IC50 [1]: 132 nM
IC50 [2]: ≥ 20 µM

Structure (SMILES): Cc1cc(-c2nc3c4c(nc(OC[C@@]56CCCN5C[C@H](F)C6)nc4c2F)N2C[C@H]4CC[C@H](N4)[C@H]2[C@H](C)O3)cc(N)c1F [Compound 13, 2-fluoro-5-((5S,5aS,6S,9R)-1-fluoro-12-(((2R,7aS)-2-fluorotetrahydro-1H-pyrrolizin-7a(5H)-yl)methoxy)-5-methyl-5a,6,7,8,9,10-hexahydro-5H-4-oxa-3,10a,11,13,14-pentaaza-6,9-methanonaphtho[1,8-ab]heptalen-2-yl)-3-methylaniline]
IC50 [1]: 1870 nM
IC50 [2]: 3.53 µM

Structure (SMILES): C#Cc1c(F)ccc2cccc(-c3nc4c5c(ncnc5c3F)N3C[C@H]5CC[C@H](N5)[C@H]3[C@H](C)O4)c12 [Compound 56, (5S,5aS,6S,9R)-2-(8-ethynyl-7-fluoronaphthalen-1-yl)-1-fluoro-5-methyl-5a,6,7,8,9,10-hexahydro-5H-4-oxa-3,10a,11,13,14-pentaaza-6,9-methanonaphtho[1,8-ab]heptalene]
IC50 [1]: 5740 nM
IC50 [2]: ≥ 20 µM

Structure (SMILES): C[C@@H]1Oc2nc(-c3cccc(N)c3F)c(F)c3nc(OC[C@@]45CCCN4C[C@H](F)C5)nc(c23)N2C[C@H]3CC[C@H](N3)[C@@H]12 [Compound 12, 2-fluoro-3-((5S,5aS,6S,9R)-1-fluoro-12-(((2R,7aS)-2-fluorotetrahydro-1H-pyrrolizin-7a(5H)-yl)methoxy)-5-methyl-5a,6,7,8,9,10-hexahydro-5H-4-oxa-3,10a,11,13,14-pentaaza-6,9-methanonaphtho[1,8-ab]heptalen-2-yl)aniline]
IC50 [1]: 16600 nM
IC50 [2]: 13.9 µM

Structure (SMILES): C[C@@H]1Oc2nc(-c3cnccc3C(F)(F)F)c(F)c3nc(OC[C@]45CCN4CC(F)(F)C5)nc(c23)N2C[C@H]3CC[C@H](N3)[C@@H]12 [Compound 78, (5S,5aS,6S,9R)-12-(((R)-3,3-Difluoro-1-azabicyclo[3.2.0]heptan-5-yl)methoxy)-1-fluoro-5-methyl-2-(4-(trifluoromethyl)pyridin-3-yl)-5a,6,7,8,9,10-hexahydro-5H-4-oxa-3,10a,11,13,14-pentaaza-6,9-methanonaphtho[1,8-ab]heptalene]
IC50 [1]: 15900 nM
IC50 [2]: ≥ 20 µM

Structure (SMILES): Cc1cc(N)nc(-c2nc3c4c(nc(OC[C@@]56CCCN5CC5(CC5(F)F)C6)nc4c2F)N2C[C@H]4CC[C@H](N4)[C@H]2CO3)c1C(F)(F)F (stereo partly drawn) [Compound 42, 6-((5aS,6S,9R)-12-(((7a′S)-2,2-difluorodihydro-1′H,3′H-spiro[cyclopropane-1,2′-pyrrolizin]-7a′(5′H)-yl)methoxy)-1-fluoro-5a,6,7,8,9,10-hexahydro-5H-4-oxa-3,10a,11,13,14-pentaaza[6,9]methanonaphtho[1,8-ab]heptalen-2-yl)-4-methyl-5-(trifluoromethyl)pyridin-2-amine]
IC50 [1]: 122 nM
IC50 [2]: 7.04 µM

Structure (SMILES): Cc1c(F)c(N)cc(-c2nc3c4c(nc(OC[C@@]56CCCN5C[C@H](OCc5ccc(-c7ccccc7C#N)cc5)C6)nc4c2F)N2C[C@H]4CC[C@H](N4)[C@H]2[C@H](C)O3)c1C(F)(F)F [Compound 32, 4′-((((2R,7aS)-7a-((((5S,5aS,6S,9R)-2-(5-amino-4-fluoro-3-methyl-2-(trifluoromethyl)phenyl)-1-fluoro-5-methyl-5a,6,7,8,9,10-hexahydro-5H-4-oxa-3,10a,11,13,14-pentaaza-6,9-methanonaphtho[1,8-ab]heptalen-12-yl)oxy)methyl)hexahydro-1H-pyrrolizin-2-yl)oxy)methyl)-[1,1′-biphenyl]-2-carbonitrile]
IC50 [1]: 3.38 nM
IC50 [2]: 0.821 µM

Structure (SMILES): Oc1cc(-c2nc3c4c(nc(OC[C@@]56CCCN5C[C@H](F)C6)nc4c2F)N2C[C@H]4CC[C@H](N4)[C@H]2CO3)c2c(F)cccc2c1 [Compound 1, 5-Fluoro-4-((5aS,6S,9R)-1-fluoro-12-(((2R,7aS)-2-fluorotetrahydro-1H-pyrrolizin-7a(5H)-yl)methoxy)-5a,6,7,8,9,10-hexahydro-5H-4-oxa-3,10a,11,13,14-pentaaza-6,9-methanonaphtho[1,8-ab]heptalen-2-yl)naphthalen-2-ol]
IC50 [1]: 226 nM
IC50 [2]: 16.9 µM

IC50 [1]: ≥ 20000 nM
IC50 [2]: 2.37 µM
Structure (SMILES): CN1CCC2COc3nc(-c4cc(O)cc5cccc(F)c45)c(F)c4nc(OC[C@@]56CCCN5C[C@H](F)C6)nc(c34)N2CC1 (single isomer, unassigned) [Compound 49]

Structure (SMILES): Cc1ccnc(-c2nc3c4c(nc(OC[C@]56CCN5CC(F)(F)C6)nc4c2F)N2C[C@H]4CC[C@H](N4)[C@H]2[C@H](C)O3)c1C(F)(F)F [Compound 88, (5S,5aS,6S,9R)-12-(((R)-3,3-Difluoro-1-azabicyclo[3.2.0]heptan-5-yl)methoxy)-1-fluoro-5-methyl-2-(4-methyl-3-(trifluoromethyl)pyridin-2-yl)-5a,6,7,8,9,10-hexahydro-5H-4-oxa-3,10a,11,13,14-pentaaza-6,9-methanonaphtho[1,8-ab]heptalene]
IC50 [1]: ≥ 20000 nM
IC50 [2]: ≥ 20 µM

Structure (SMILES): Cn1ncc2ccc(F)c(-c3nc4c5c(nc(OC[C@@]67CCCN6C[C@H](F)C7)nc5c3F)N3C[C@H]5CC[C@H](N5)[C@H]3CO4)c21 [Compound 4, (5aS,6S,9R)-1-fluoro-2-(6-fluoro-1-methyl-1H-indazol-7-yl)-12-(((2R,7aS)-2-fluorotetrahydro-1H-pyrrolizin-7a(5H)-yl)methoxy)-5a,6,7,8,9,10-hexahydro-5H-4-oxa-3,10a,11,13,14-pentaaza-6,9-methanonaphtho[1,8-ab]heptalene]
IC50 [1]: 9750 nM
IC50 [2]: 13.3 µM

Structure (SMILES): C[C@@H]1Oc2nc(-c3nc(N)cc4ccccc34)c(F)c3nc(OC[C@@]45CCCN4C[C@H](F)C5)nc(c23)N2C[C@H]3CC[C@H](N3)[C@@H]12 [Compound 41, 1-((5S,5aS,6S,9R)-1-fluoro-12-(((2R,7aS)-2-fluorotetrahydro-1H-pyrrolizin-7a(5H)-yl)methoxy)-5-methyl-5a,6,7,8,9,10-hexahydro-5H-4-oxa-3,10a,11,13,14-pentaaza-6,9-methanonaphtho[1,8-ab]heptalen-2-yl)isoquinolin-3-amine]
IC50 [1]: 980 nM
IC50 [2]: ≥ 20 µM

Structure (SMILES): Fc1c(-c2cccc3cccc(Cl)c23)nc2c3c(nc(OC[C@@]45CCCN4C[C@H](F)C5)nc13)N1C[C@H]3CC[C@H](N3)[C@H]1CO2 [Compound 2, (5aS,6S,9R)-2-(8-chloronaphthalen-1-yl)-1-fluoro-12-(((2R,7aS)-2-fluorotetrahydro-1H-pyrrolizin-7a(5H)-yl)methoxy)-5a,6,7,9,10-hexahydro-5H-4-oxa-3,10a,11,13,14-pentaaza-6,9-methanonaphtho[1,8-ab]heptalene]
IC50 [1]: 565 nM
IC50 [2]: 4.68 µM

Structure (SMILES): Cc1cc(N)nc(-c2nc3c4c(nc(OC[C@@]56CCCN5C[C@H](F)C6)nc4c2F)N2C[C@H]4CC[C@H](N4)[C@H]2CO3)c1C(F)(F)F [Compound 44, 6-((5aS,6S,9R)-1-fluoro-12-(((2R,7aS)-2-fluorotetrahydro-1H-pyrrolizin-7a(5H)-yl)methoxy)-5a,6,7,8,9,10-hexahydro-5H-4-oxa-3,10a,11,13,14-pentaaza-6,9-methanonaphtho[1,8-ab]heptalen-2-yl)-4-methyl-5-(trifluoromethyl)pyridin-2-amine]
IC50 [1]: 337 nM
IC50 [2]: ≥ 20 µM

Source: US12338256B2, “Aza-tetracyclic oxazepine compounds and uses thereof” (Genentech, Inc., priority 2022, dated 2025)
